Holding throughout (type): cell-based, human
Data set [1] deals with TNFα. Nature of the data set: TNFα release from LPS-stimulated THP-1 monocytes, ELISA. The settings on record: THP-1, LPS 200 ng/ml, 24 hours; Cpd II 15 μg/ml, Dex 10 μM; LPS alone 138.655. The protocol: (§1) THP-1 is a monocyte cell line obtained from American Type Culture Collection (ATCC) (catalog no. TIB-202). […] After 1 hour, lipopolysaccharide (LPS) (obtained from Sigma) was added to the cultures to give a final concentration of 200 ng/ml, and the cells were then incubated for an additional 4 hours or for an additional 24 hours. After the incubation, the cells were centrifuged, and the supernatants were collected. The concentrations of IL-8 and TNFα in the supernatants were determined by ELISA.
The TNFα ELISA was performed as described in Example 2.

For data set [2], the system named is TCR-positive cells. Nature of the data set: Annexin staining of TCR-positive PBL, flow cytometry (cell death). Particulars: PHA 5 μg/ml plus 10 μM dexamethasone; printed as decreased from 84%. The method, then:
After this incubation, PHA was added to give a final concentration of 5 μg/ml, and the cells were incubated for an additional 72 hours at 37° C., 5% CO2. All cultures were performed in triplicate. Cells were then removed by centrifugation at 1000 rpm for 10 minutes.
The cells were further analyzed by flow cytometry. Annexin was used to determine populations of dead or dying cells. Anti-CD69 antibody was used to establish the level of cellular activation. Antibody to T-cell receptor αβ (TCR) was also used. Recombinant Annexin 5 (PE and FITC conjugates) and the antibodies were all purchase from Caltag (Burlingham, Calif.) and used following the manufacturer's recommendations.

In data set [3] the test system is IL-8. Nature of the data set: IL-8 release from LPS-stimulated THP-1 monocytes, ELISA. The settings on record: THP-1, LPS 200 ng/ml, Cpd II 15 μg/ml, Dex 10 μM. The method, then:
as §1
The concentrations of IL-8 in the supernatants were determined by ELISA performed as described in Example 4.

Data set [4] has as its system NFκB. Description: Activated NFκB in TNFα- or VEGF-treated HIAECs, TransAM assay. Particulars: TNFα + LY 294002, control 0.174, TNFα only 0.881. The method, then: (§2) Then, the amount of NFκB was determined using a TransAM™ NFκB p65/NFκB p50 Transcription Factor Assay Kit and a Nuclear Extract Kit from Active Motif North America, Carlsbad, Calif., according to the manufacturer's instructions. Briefly, a nuclear extract of the cells was prepared using the Nuclear Extract Kit. Then, the nuclear extract was added to the wells of the 96-well plate of the TransAM™ kit. Oligonucleotide containing an NFκB consensus binding site was immobilized in the wells, and the activated NFκB contained in the nuclear extract was bound to the oligonucleotide. Then, an antibody directed against the NFκB p65 or p50 subunit was added, and the NFκB complex bound to the oligonucleotide was detected. A secondary antibody conjugated to horseradish peroxidase (HRP) was next added to provide a colorimetric readout that was quantified by spectrophotometry (measurement at 450 nm).
Passage 8 (human iliac artery endothelial cells (HIAECs) (obtained from ATCC; catalog no. CC-2545) were grown to confluence in 25 cm^2 flasks in EGM-2 medium. Eighteen hours prior to the experiment, the medium was replaced with EGM-2 medium containing 0.1% FCS plus heparin, GA1000 (gentamycin) and bovine pituitary extract (all from Cambrex) to place the cells in a resting state. To perform the experiment the medium was aspirated from the flasks, and the following additives were added to the flasks in fresh medium (total volume of 5 ml/flask): 15 μg/ml of the compound of formula II (Cpd II) or 10 μM LY 294002. The flasks were incubated 2 hours at 37° C., 5% CO2 After this incubation, VEGF or TNFα was added to give a final concentration 10 ng/ml, and the flasks were incubated for an additional 30 minutes. Then, the amount of NFκB was determined using a TransAM™ NFκB p65/NFκB p50 Transcription Factor Assay Kit and a Nuclear Extract Kit from Active Motif North America, Carlsbad, Calif., as described in Example 9.

The test system of data set [5] is NFκB. Description: Activated NFκB in VEGF-treated HUVECs, TransAM assay. The settings on record: VEGF 10 ng/ml + 10 μM, control 0.070, VEGF only 0.111. The method, then:
Passage 5 HUVECs, human source lot number 8750 (obtained from ATCC), were grown to confluence in 25 cm^2 flasks in EGM-2 medium. The following additives were added to the flasks (total volume of 5 ml/flask) in EGM-2 medium containing 2% FCS, GA1000 (gentamycin), heparin and ascorbic acid (all from Cambrex): 1 μg/ml of the compound of formula II (Cpd II); 5 μg/ml Cpd II; 15 μg/ml of Cpd II; 15 μg/ml methylphenidate (MP); or 10 μM LY 294002. The flasks were incubated overnight at 37° C., 5% CO2 After this incubation, vascular endothelial growth factor (VEGF) (obtained from Sigma) was added to give a final concentration 10 ng/ml, and the flasks were incubated for an additional 30 minutes.
as §2

In data set [6] the test system is IL-8. Nature of the data set: IL-8 release by TNFα-stimulated HUVECs, ELISA. Particulars: 10 ng/ml TNFα + 10 μM; 18 hours; TNFα + water 35572. The protocol: Passage 4 HUVECs, human source lot number 8710 (obtained from ATCC), were put into the wells of a 24-well tissue culture plate at 5,000 cells/well in EGM-2 medium (obtained from Cambrex) and cultured for 72 hours at 37° C. and 5% CO2. […] After incubation for 1 hour at 37° C. and 5% CO2, TNFα (obtained from Pierce) was added to give a final concentration of 10 ng/ml, and the cells were incubated for an additional 18 hours at 37° C. and 5% CO2. After this incubation, the supernatants were collected, and the amount of IL-8 in the supernatants determined by ELISA as described in Example 4.

The subject of data set [7] is c-Jun. Description: c-Jun in VEGF-treated HUVECs, TransAM AP-1 assay. Particulars: VEGF 10 ng/ml + 10 μM, control 0.204, VEGF only 0.261. The protocol:
The flasks were incubated overnight at 37° C., 5% CO2 After this incubation, vascular endothelial growth factor (VEGF) (obtained from Sigma) was added to give a final concentration 10 ng/ml, and the flasks were incubated for an additional 30 minutes.
The amount of c-Jun was determined using a TransAM™ AP-1 Family Transcription Factor Assay Kit and a Nuclear Extract Kit from Active Motif North America, Carlsbad, Calif., according to manufacturer's instructions. Briefly, a nuclear extract of the cells was prepared using the Nuclear Extract Kit. Then, the nuclear extract was added to the wells of a 96-well plate in which oligonucleotide containing a TPA-responsive element (TRE) was immobilized. Activator protein-1 (AP-1) dimers contained in the nuclear extract were bound to this oligonucleotide and were detected using an antibody specific for c-Jun. A secondary antibody conjugated to horseradish peroxidase (HRP) was next added to provide a colorimetric readout that was quantified by spectrophotometry (measurement at 450 nm).

For `C[C@@H]1C[C@H]2[C@@H]3CCC4=CC(=O)C=C[C@]4(C)[C@@]3(F)[C@@H](O)C[C@]2(C)[C@@]1(O)C(=O)CO` [dexamethasone, reference compound], in data set [1], the “Mean TNFα Concentration” value came to 94.759 ± 8.755 pg/mL. Further, the “Annexin staining of TCR-positive cells” value in data set [2] turned out to be 48%. Besides, the “% Inhibition (IL-8)” value was found to be 26% in data set [3] (4 hours) and 66% in data set [3] (24 hours). Further, the “Mean IL-8 Concentration” value in data set [3] (24 hours, LPS alone 6653.20) came out at 2300.00 ± 283.41 pg/mL.
Regarding `O=c1cc(N2CCOCC2)oc2c(-c3ccccc3)cccc12` [LY 294002, reference compound], the “Mean OD 450 nm (NFκB)” value was determined as 0.810 ± 0.007 in data set [4] and 0.138 ± 0.008 in data set [5]. In addition, the “Mean IL-8” value in data set [6] came out at 9196.1 ± 150.97 pg/mL. For the same compound, the “Mean OD 450 nm (c-Jun)” value in data set [7] is recorded as 0.340 ± 0.020.

Values taken from patent publication US20060183773A1, “Uses of methylphenidate derivatives” (priority 2005, published 2006).
